According to patent US5171751A, “Benzofuran/benzofuranalkyl-N-terminal amino hydroxy” (G. D. Searle & Co., priority 1991, dated 1992):
Values belong to the compound of their own block, whether it stands above or below them. Square brackets hold non-standard residues; d marks the D form. Peptide text beside a SMILES is read from it. * marks the point of attachment. Sta = CC(C)C[C@H](N)[C@@H](O)CC(=O)O; Isovaleryl = CC(C)CC(=O)*

How the values were obtained:
human renin = molecular target: T1, human renin (Homo sapiens, UniProt P00797); test: In vitro human renin inhibition (angiotensin I determined by radioimmunoassay); format: biochemical; details: 37° C., pH 7.4, two hours
T1 construct: purchased National Institute for Biological Standards, London
T1 sequence (P00797 67-406): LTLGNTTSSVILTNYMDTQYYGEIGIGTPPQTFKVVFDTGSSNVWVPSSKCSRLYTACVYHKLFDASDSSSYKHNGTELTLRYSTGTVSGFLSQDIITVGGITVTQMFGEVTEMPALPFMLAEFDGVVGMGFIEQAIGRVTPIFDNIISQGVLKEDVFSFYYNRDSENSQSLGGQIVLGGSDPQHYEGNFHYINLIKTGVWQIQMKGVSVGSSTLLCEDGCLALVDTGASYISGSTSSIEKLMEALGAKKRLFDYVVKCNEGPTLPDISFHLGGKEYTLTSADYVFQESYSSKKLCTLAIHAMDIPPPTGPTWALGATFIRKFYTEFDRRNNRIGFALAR
Protocol: Compounds of Formula I were evaluated as inhibitors of human renin in an in vitro assay. This human renin inhibition test has been previously described in detail Papaioannou et al., Clinical and Experimental Hypertension, A7(9), 1243-1257 (1985)]. Human renin was obtained from the National Institute for Biological Standards, London. An incubation mixture was prepared containing in a total volume of 0.25 mL 100 mM Tris-acetate buffer at pH 7.4, 25×10^-6 Goldblatt units of renin, 0.05mL of plasma from human volunteers taking oral contraceptives, 6.0 mM sodium EDTA, 2.4 mM phenylmethyl sulfonyl fluoride, 1.5 mM 8-hydroxyquinoline, 0.4 mg/mL BSA, and 0.024 mg/mL neomycin sulfate. This mixture was incubated for two hours at 37° C. in the presence or absence of renin inhibitors. The produced angiotensin I was determined by radioimmunoassay (New England Nuclear kit). Test compounds to be assayed were dissolved in DMSO and diluted with 100mM Tris-acetate buffer at pH 7.4 containing 0.5% BSA to the appropriate concentration. The final concentration of organic solvent in the reaction mixture was less than 1%. Control incubations at 37° C. were used to correct for effects of organic solvent on renin activity.

pepsin = details: cited from earlier work
cathepsin D = details: cited from earlier work
renin = details: cited from earlier work
hog renin = details: after injection of hog renin into nephrectomized rats; cited from earlier work
acid proteases = details: cited from earlier work

IC50 (human renin): 0.43 µM
SMILES: CC(C)C[C@H](O)[C@H](O)[C@H](CC1CCCCC1)NC(=O)[C@H](C)CNC(=O)CCc1c[nH]c2ccccc12 [Example 22, N-[3-[[1S, 1R^* -(cyclohexylmethyl)-2S^*, 3R^* -dihydroxy-5-methylhexyl]amino]-2S^* -methyl-3-oxopropyl]-1H-indole-3-propanamide]

SMILES: CC(C)CC(=O)N[C@H](C(=O)N[C@H](C(=O)N[C@@H](CC(C)C)[C@@H](O)CC(=O)N[C@@H](C)C(=O)N[C@@H](CC(C)C)[C@@H](O)CC(=O)O)C(C)C)C(C)C [pepstatin] (Isovaleryl-VV[Sta]A[Sta]-OH)
inhibitor of pepsin (pepsin): inhibitor
inhibitor of cathepsin D (cathepsin D): inhibitor
inhibitor of renin (renin): inhibitor
reduction of blood pressure in vivo (hog renin): reduce blood pressure in vivo
inhibiting acid proteases in addition to renin (acid proteases): inhibiting acid proteases in addition to renin
